# According to ChEMBL document CHEMBL1138919, “Binding of methoxy-substituted N1-benzenesulfonylindole analogs at human 5-HT6 serotonin receptors” (Bioorg Med Chem Lett, 2006):
# Target: 5-hydroxytryptamine receptor 6 (Homo sapiens, UniProt P50406)
# Experiment: Binding affinity to human 5HT6 receptor
# Chain of 5-hydroxytryptamine receptor 6 (P50406 whole entry): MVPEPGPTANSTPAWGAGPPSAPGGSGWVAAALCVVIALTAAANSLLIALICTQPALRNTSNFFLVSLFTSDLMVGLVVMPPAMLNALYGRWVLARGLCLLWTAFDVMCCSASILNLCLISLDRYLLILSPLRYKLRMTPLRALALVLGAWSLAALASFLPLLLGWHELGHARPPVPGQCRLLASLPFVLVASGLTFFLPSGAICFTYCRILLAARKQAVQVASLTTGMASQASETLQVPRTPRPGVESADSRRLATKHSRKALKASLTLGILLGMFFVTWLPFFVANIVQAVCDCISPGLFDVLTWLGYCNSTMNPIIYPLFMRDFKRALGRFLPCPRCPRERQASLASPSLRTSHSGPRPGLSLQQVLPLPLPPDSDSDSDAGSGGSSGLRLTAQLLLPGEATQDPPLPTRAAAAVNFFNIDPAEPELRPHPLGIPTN
row,SMILES,Ki [nM]
1,COc1cc(OC)c2ccn(S(=O)(=O)c3ccc(N)cc3)c2c1,0.8
2,COc1cccc2c1ccn2S(=O)(=O)c1ccc(N)cc1,3.3
3,CNc1cccc2c1c1c(n2S(=O)(=O)c2ccc(N)cc2)CCCC1,165
4,COc1cc(OC)c2c3c(n(S(=O)(=O)c4ccc(N)cc4)c2c1)CCCC3,210
5,CNc1ccc2c3c(n(S(=O)(=O)c4ccc(N)cc4)c2c1)CCCC3,205
6,COc1ccc2ccn(S(=O)(=O)c3ccc(N)cc3)c2c1,1.8
